Measured values as given in ChEMBL document CHEMBL4371004, “A-C Estrogens as Potent and Selective Estrogen Receptor-Beta Agonists (SERBAs) to Enhance Memory Consolidation under Low-Estrogen Conditions” (J Med Chem, 2018).
Active and inactive are the calls of the source. The calls are words filed in the database; no cut-off is given here.

Experiments:
[1] = molecular target: T1, Peroxisome proliferator-activated receptor delta (Homo sapiens) (UniProt Q03181); test: Agonist activity at GAL4 DNA binding domain fused PPARdelta (unknown origin) at 0.25 to 25 uM by FRET-based assay
T1 sequence (whole entry): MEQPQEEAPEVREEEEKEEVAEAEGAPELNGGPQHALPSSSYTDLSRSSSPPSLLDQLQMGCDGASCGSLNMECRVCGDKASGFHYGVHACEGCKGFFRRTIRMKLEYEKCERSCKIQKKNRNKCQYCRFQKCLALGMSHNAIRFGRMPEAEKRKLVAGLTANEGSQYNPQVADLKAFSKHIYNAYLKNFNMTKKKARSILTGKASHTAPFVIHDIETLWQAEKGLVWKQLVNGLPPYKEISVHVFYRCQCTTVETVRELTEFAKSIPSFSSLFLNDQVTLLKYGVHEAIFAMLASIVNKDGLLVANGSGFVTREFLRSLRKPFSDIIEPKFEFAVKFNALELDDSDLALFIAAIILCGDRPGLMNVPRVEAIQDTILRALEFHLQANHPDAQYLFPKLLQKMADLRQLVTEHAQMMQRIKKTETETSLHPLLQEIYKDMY

Mus musculus [2] = test: Memory enhancement effect in C57BL/6 mouse assessed as time spent with novel object at 10 pg administered as dorsal hippocampal infusion by novel object recognition test; format: functional
[3] = molecular target: T2, Mineralocorticoid receptor (Homo sapiens) (UniProt P08235); test: Agonist activity at GAL4 DNA binding domain fused mineralocorticoid receptor ligand binding domain (unknown origin) at 0.25 to 25 uM by FRET-based assay
T2 sequence (whole entry): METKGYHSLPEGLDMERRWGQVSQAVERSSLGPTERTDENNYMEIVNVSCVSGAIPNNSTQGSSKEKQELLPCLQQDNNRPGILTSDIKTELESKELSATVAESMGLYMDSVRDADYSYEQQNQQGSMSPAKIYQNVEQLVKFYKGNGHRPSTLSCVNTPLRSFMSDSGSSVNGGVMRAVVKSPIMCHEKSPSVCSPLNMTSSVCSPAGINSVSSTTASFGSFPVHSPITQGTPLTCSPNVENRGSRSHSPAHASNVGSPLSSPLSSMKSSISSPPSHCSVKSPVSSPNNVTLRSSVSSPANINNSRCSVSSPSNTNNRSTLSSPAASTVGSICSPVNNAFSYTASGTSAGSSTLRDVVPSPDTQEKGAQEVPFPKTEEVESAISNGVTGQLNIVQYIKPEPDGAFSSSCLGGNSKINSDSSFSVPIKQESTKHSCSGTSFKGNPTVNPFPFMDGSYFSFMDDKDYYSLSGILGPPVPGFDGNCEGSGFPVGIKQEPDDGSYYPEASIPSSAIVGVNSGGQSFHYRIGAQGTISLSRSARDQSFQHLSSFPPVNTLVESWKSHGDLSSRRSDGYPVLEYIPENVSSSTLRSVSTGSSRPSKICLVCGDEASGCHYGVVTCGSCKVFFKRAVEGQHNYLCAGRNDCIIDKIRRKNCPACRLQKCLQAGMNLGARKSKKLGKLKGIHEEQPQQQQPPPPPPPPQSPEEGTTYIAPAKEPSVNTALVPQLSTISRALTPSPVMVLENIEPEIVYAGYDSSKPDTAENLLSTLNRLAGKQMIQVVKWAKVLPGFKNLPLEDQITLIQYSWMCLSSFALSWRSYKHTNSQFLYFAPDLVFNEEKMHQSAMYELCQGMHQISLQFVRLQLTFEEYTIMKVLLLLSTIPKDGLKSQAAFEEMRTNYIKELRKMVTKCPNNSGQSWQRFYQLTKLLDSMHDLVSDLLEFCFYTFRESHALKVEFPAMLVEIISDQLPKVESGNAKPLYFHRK

Mus musculus [4] = test: Memory enhancement effect in C57BL/6 mouse assessed as time spent with moved object at 0.5 mg/kg, po administered via gavage by object recognition test; format: functional
Mus musculus [5] = test: Memory enhancement effect in C57BL/6 mouse assessed as time spent with novel object at 0.5 mg/kg, po administered via gavage by novel object recognition test; format: functional
Mus musculus [6] = test: Memory enhancement effect in C57BL/6 mouse assessed as time spent with novel object at 5 mg/kg, ip by novel object recognition test; format: functional
Estrogen receptor [7] = molecular target: T3, Estrogen receptor (Homo sapiens, UniProt P03372); test: cell-based
T3 sequence (P03372 whole entry): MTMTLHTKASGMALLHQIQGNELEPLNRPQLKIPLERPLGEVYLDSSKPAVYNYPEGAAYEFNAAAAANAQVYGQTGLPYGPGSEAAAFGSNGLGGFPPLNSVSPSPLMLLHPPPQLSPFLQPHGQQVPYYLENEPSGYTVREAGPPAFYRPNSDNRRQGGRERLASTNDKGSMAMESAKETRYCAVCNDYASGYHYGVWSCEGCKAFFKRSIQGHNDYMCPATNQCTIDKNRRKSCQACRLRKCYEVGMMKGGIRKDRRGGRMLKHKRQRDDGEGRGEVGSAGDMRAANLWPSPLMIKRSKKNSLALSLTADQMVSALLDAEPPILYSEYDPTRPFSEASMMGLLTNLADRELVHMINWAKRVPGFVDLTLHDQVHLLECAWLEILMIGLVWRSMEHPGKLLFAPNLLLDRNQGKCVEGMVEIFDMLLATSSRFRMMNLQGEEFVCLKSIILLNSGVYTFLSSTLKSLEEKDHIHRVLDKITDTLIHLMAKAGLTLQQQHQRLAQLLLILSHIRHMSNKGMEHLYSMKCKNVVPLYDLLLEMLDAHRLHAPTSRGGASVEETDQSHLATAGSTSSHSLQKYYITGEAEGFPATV
Description: Agonist activity at GAL4 DNA binding domain fused full-length chimeric estrogen receptor alpha (unknown origin) by FRET-based assay

Estrogen receptor [8] = molecular target: T3, Estrogen receptor
[9] = molecular target: T4, Thyroid hormone receptor beta (Homo sapiens) (UniProt P10828); test: Agonist activity at GAL4 DNA binding domain fused thyroid hormone receptor beta (unknown origin) at 0.25 to 25 uM by FRET-based assay
T4 sequence (whole entry): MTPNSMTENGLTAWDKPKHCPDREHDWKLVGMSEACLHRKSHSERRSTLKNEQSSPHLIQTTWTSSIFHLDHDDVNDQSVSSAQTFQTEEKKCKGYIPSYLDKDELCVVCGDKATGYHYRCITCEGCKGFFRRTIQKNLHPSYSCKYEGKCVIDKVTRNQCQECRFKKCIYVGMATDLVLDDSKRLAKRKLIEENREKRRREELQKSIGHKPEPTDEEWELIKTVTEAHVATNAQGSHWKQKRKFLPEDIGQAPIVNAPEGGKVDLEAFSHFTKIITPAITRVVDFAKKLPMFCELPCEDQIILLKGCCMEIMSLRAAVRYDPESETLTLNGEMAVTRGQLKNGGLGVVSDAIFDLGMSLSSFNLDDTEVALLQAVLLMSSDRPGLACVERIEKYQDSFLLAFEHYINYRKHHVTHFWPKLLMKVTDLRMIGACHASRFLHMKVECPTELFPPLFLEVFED

Mus musculus [10] = test: Memory enhancement effect in C57BL/6 mouse assessed as time spent with moved object at 100 pg administered as dorsal hippocampal infusion by novel object recognition test; format: functional

OC[C@H]1CC[C@H](c2ccc(O)cc2)CC1
Activity [1]: inactive | Time (Mus musculus [2]): 0.88 s | Activity [3]: inactive | Time (Mus musculus [4]): 3.65 s | Time (Mus musculus [5]): 5.3 s | Time (Mus musculus [6]): 1.65 s | EC50 (Estrogen receptor [7]): 0.93 µM | EC50 (Estrogen receptor [8]): > 10 µM | Activity [9]: inactive | Time (Mus musculus [10]): 10.3 s
